Experimental data published in patent publication US7238362B2, “Dithianon-based fungicidal mixtures” (BASF Aktiengesellschaft, priority 2002, dated 2007).

Test system: Alternaria solani
Assay: Activity against early blight of tomato caused by Alternaria solani (protective spray, potted tomato plants)
Type: in vivo
Conditions: individual active compound, tomato leaves, evaluated after 5 days
Method: The active compounds were prepared separately as a stock solution comprising 0.25% by weight of active compound in acetone or DMSO. 1% by weight of the emulsifier Uniperol® EL (wetting agent having emulsifying and dispersing action based on ethoxylated alkylphenols) was added to this solution, and the mixture was diluted with water to the desired concentration.
Leaves of potted plants of the cultivar “Groβe Fleischtomate St. Pierre” were sprayed to runoff point with an aqueous suspension having the concentration of active compounds stated below. The next day, the leaves were infected with an aqueous […] suspension of Alternaria solani in 2% biomalt solution having a density of 0.17×10^6 spores/ml. The plants were then placed in a water-vapor-saturated chamber at temperatures of between 20 and 22 C. After 5 days, the infection on the leaves of the untreated, but infected control plants had developed to such an extent that the infection could be determined visually in %.
Evaluation was carried out by determining the infected leaf area in per cent. These percentages were converted into efficacies.
The efficacy (E) is calculated as follows using Abbot's formula: E=(1−α/β)·100 • α corresponds to the fungal infection of the treated plants in % and • β corresponds to the fungal infection of the untreated (control) plants in %
An efficacy of 0 means that the infection level of the treated plants corresponds to that of the untreated control plants; an efficacy of 100 means that the treated plants were not infected. […]

Compound	Efficacy in % of the untreated control (8 ppm in the spray liquor)	Efficacy in % of the untreated control (16 ppm in the spray liquor)	Efficacy in % of the untreated control (31 ppm in the spray liquor)	Efficacy in % of the untreated control (63 ppm in the spray liquor)
O=C(Nc1ccccc1-c1ccc(F)cc1)c1cccnc1Cl [II-2]	27%	39%	27%	88%
N#Cc1sc2c(=O)c3ccccc3c(=O)c=2sc1C#N [I, dithianon]	0%	0%	27%	63%
O=C(Nc1ccccc1-c1ccc(Cl)cc1)c1cccnc1Cl [II-1, boscalid]	63%	76%	82%	88%
